Tested on: human keratinocyte cell (KAC Co., Ltd.: KER110)
Test: Cell proliferation test (Cell Counting Kit-8) in TGP culturing substrate
Assay type: cell-based
Conditions: 7 days culture, control = 100%, p < 0.01 (Dunnett)
Procedure: human keratinocyte cell (KAC Co., Ltd.: KER110)
the composition of the present disclosure comprising the polymer compound (TGP in Preparation Example 1) and oligopeptide of the present disclosure.
Frozen human keratinocyte cells (KAC Co., Ltd.: KER110) were dissolved in warm water at 37° C., suspended in EpiLife Medium (Thermo Fisher Scientific, Inc.: MEPI500CA) to which Human Keratinocyte Growth Supplement (HKGS) (Thermo Fisher Scientific, Inc.: S0015) was added, seeded in a 25 cm^2 flask, and cultured at 37° C. in an atmosphere containing 5% CO2.
The cultured cells were washed with DPBS (Thermo Fisher Scientific, Inc.: 14190144), and a trypsin solution (Thermo Fisher Scientific, Inc.: 12604013) was added to the cultured cells to recover cells and was centrifuged at 1,000 rpm for three minutes. After the centrifugation, supernatant was removed. A cell suspension obtained by adding a culture solution to a cell sediment was seeded in a 25 cm^2 flask and subcultured at 37° C. in an atmosphere containing 5% CO2.
The tripeptide in Preparation Example 3 was dissolved in a culture medium to prepare six samples having concentrations of 1 µM, 3 µM, 10 µM, 30 µM, 100 µM, and 1000 µM. A control includes only a culture medium.
The polymer compound (TGP in Preparation Example 1) of the present disclosure is added into a 48-well plate and freeze-dried. 120 µL of the six samples of the above concentrations and the control culture medium were added to the respective wells, and each mixture was dissolved with cooling at 4° C. overnight.
30 µL of a cell suspension recovered through the same procedure as the subculture operation was seeded in the polymer compound of the present disclosure in the 48-well plate and gelled at 37° C. for 30 minutes in an atmosphere containing 5% CO2. Then, 300 µL of the six samples of the above concentrations and control culture medium were layered and cultured at 37° C. in an atmosphere containing 5% CO2.
After culturing for 7 days, 250 µL of culture supernatant was removed, 60 µL of Cell Counting Kit-8 (Doujin Kagaku Co., Ltd.) was added and the mixture was reacted overnight at 37° C. in an atmosphere containing 5% CO2. 80 µL of the supernatant of an obtained reaction product was dispensed into a 96-well plate. This supernatant was measured with a microplate reader at a measurement wavelength of 450 nm to evaluate cell proliferation.
The cell proliferation rates of 1 µM, 3 µM, 10 µM, 30 µM, 100 µM, and 1000 µM samples were compared with that of a control, and the results are shown in Table 1 below.

CC[C@H](C)[C@H](NC(=O)[C@@H]1CCCN1)C(=O)NCC(=O)O (racemic) [Preparation Example 3, prolyl-isoleucyl-glycine]
Cell Proliferation Rates (1 µM tripeptide in TGP substrate): 114%
Cell Proliferation Rates (3 µM tripeptide in TGP substrate): 116%
Cell Proliferation Rates (10 µM tripeptide in TGP substrate): 118%
Cell Proliferation Rates (30 µM tripeptide in TGP substrate): 126%
Cell Proliferation Rates (100 µM tripeptide in TGP substrate): 126%
Cell Proliferation Rates (1000 µM tripeptide in TGP substrate): 128%

From patent publication US20230203094A1, “Composition Comprising Thermosensitive Gel and Oligopeptide, and Use Thereof” (International Frontier Technology Laboratory, Inc., priority 2019, published 2023)
